Where two headings read alike, the source gives them in different places.
Tests used:
pfDHODH = pfDHODH (Plasmodium falciparum (isolate 3D7), UniProt Q08210); assay: DHODH chromogen reduction (DCIP) assay, pfDHODH; type: biochemical, P. falciparum
Excerpt: (§1) Type 2 DHODH activity was monitored with either the direct assay measuring the formation of orotate or via a chromogen reduction assay using DCIP. Although the extinction coefficient and absorption wavelength are preferable for the chromogen reduction assay, the inorganic electron acceptor DCIP can be utilized by DHODH as the final electron acceptor in lieu of CoQn when the endogenous substrate is at a low concentration. As such, the direct assay was used to measure the binding affinity of pfDHODH to CoQD and L-DHO. The enzymatic reaction was performed by varying the L-DHO concentration (1-400 μM) or CoQD concentration (1-200 μM) while keeping the other substrate constant and in excess.
(§2) Substrate specificity and enzyme inhibition data was analyzed with GraphPad Prism Version 4 for Windows (GraphPad Software). Kinetic constants were calculated by non-linear regression fitting of the data to the Michaelis-Menten equation [36]. IC50 values were determined by non-linear regression fitting of the data to Equation 1: […]

P. falciparum Dd2 = assay: Inhibition of in vitro P. falciparum culture, [3H]-hypoxanthine uptake, Dd2; type: cell-based
Method: (§3) P. falciparum strains D10, 3D7, HB3, and Dd2 were obtained from the Malaria Research and Reference Reagent Resource Center (Manassas, Va.). The parasite strains were maintained in vitro by method of Trager and Jensen. The inhibition of P. falciparum growth in the presence of drug was assessed by the relative reduction of [^3H]-hypoxanthine uptake as previously described. Inhibition data were fitted to Equation 1 using non-linear regression analysis except that the relative velocity of parasite growth was substituted for the rate of product formation.

P. falciparum 3D7 = assay: Inhibition of in vitro P. falciparum culture, [3H]-hypoxanthine uptake, 3D7; type: cell-based
Method: as §3

hsDHODH = hsDHODH (Homo sapiens (Human), UniProt Q02127); assay: DCIP assay, hsDHODH; type: biochemical; conditions: Table 2b; read-out: Hu (human DHODH) IC50
Excerpt: as §1, with “excess. The formation of orotate was measured continuously at 296 nm (ε296=4.3 mM^−1 cm^−1). Inhibition of DHODH by small molecules was evaluated using the chromogen based assay with a final substrate concentration of 200 μM L-DHO, 18 μM CoQD, and 100 μM DCIP, unless otherwise noted. The reduction of DCIP was monitored at 600 nm (ε600=18.8 mM^−1 cm^−1).” for “excess.”
as §2

[1] = Table 2b, read-out: pfDHODH IC50
[2] = Plasmodium falciparum, DD2, Table 2b, read-out: Dd2 EC50
[3] = Plasmodium falciparum, 3D7, Table 2b, read-out: 3D7 EC50

pfDHODH, sequence (Q08210 159-565 limits assumed): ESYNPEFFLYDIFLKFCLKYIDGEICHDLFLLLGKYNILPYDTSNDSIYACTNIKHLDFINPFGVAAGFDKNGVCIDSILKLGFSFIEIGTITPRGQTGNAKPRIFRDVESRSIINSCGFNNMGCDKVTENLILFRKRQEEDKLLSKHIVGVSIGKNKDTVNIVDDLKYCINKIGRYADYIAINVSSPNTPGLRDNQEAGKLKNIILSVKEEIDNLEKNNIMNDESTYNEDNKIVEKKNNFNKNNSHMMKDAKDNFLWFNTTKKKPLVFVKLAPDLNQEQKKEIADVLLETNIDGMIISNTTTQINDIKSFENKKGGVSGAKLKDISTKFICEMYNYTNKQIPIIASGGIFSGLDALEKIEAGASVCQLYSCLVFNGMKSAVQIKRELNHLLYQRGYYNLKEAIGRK
hsDHODH, sequence (Q02127 29-395 limits assumed): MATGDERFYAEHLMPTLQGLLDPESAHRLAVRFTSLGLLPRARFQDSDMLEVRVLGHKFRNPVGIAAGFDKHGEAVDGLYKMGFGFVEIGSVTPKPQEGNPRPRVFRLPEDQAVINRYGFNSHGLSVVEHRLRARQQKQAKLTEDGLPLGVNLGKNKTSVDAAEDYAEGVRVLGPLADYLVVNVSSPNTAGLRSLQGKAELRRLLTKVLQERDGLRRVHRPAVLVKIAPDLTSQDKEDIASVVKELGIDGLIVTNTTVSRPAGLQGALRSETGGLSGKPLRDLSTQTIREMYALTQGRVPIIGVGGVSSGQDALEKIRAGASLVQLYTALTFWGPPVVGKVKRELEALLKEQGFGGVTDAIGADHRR

SMILES	IC50 (pfDHODH; [1]) [nM]	EC50 (P. falciparum Dd2; [2]) [nM]	EC50 (P. falciparum 3D7; [3]) [nM]	IC50 (hsDHODH) [nM]	IC50 (pfDHODH; pfDHODH IC50, Table 2b) [nM]	EC50 (P. falciparum Dd2; Plasmodium falciparum, DD2, read-out: Dd2 EC50, Table 2b) [nM]	EC50 (P. falciparum 3D7; Plasmodium falciparum, 3D7, read-out: 3D7 EC50, Table 2b) [nM]	EC50 (P. falciparum Dd2; Table 2b, read-out: Dd2 EC50) [nM]	EC50 (P. falciparum 3D7; Table 2b, read-out: 3D7 EC50) [nM]
CCc1nc2ccccc2n1-c1ccc(C(=O)NC2CC2)s1 [Compound 49]	113	185	125	> 30000	–	–	–	–	–
Cc1nc2cc(Cl)ccc2n1-c1ccc(C(=O)NC2CC2)s1 [Compound 40]	–	–	–	> 30000	58	120	88	–	–
O=C(NCCO)c1ccc(-n2cnc3ccccc32)s1 [Compound 30]	14000	6500	5900	> 30000	–	–	–	–	–
CCNC(=O)c1ccc(-n2c(C)nc3cc(Cl)ccc32)s1 [Compound 52]	94	104	53	> 30000	–	–	–	–	–
CCNC(=O)c1ccc(-n2cnc3ccccc32)s1 [Compound 25]	145	154	102	> 30000	–	–	–	–	–
O=C(NC1CCC1)c1ccc(-n2cnc3ccccc32)s1 [Compound 38]	418	442	408	> 30000	–	–	–	–	–
CNC(=O)c1ccc(-n2cnc3ccccc32)s1 [Compound 24]	1080	422	276	> 30000	–	–	–	–	–
CCCNC(=O)c1ccc(-n2c(C)nc3cc(Cl)ccc32)s1 [Compound 51]	239	314	158	> 30000	–	–	–	–	–
Cc1nc(-c2ccc(F)cc2)cn1-c1ccc(C(=O)NC2CC2)s1 [Compound 76]	240	217	226	> 30000	–	–	–	–	–
CCNC(=O)c1ccc(-n2c(C)nc3cc(C)ccc32)s1 [Compound 62]	112	87	89	> 30000	–	–	–	–	–
O=C(NC1CCCC1)c1ccc(-n2cnc3ccccc32)s1 [Compound 35]	2510	5500	4400	> 30000	–	–	–	–	–
Cc1nc2cc(F)ccc2n1-c1ccc(C(=O)NC2CC2)s1 [Compound 42]	88	–	–	> 30000	–	–	–	150	104
Cc1nc2cc(F)ccc2n1-c1ccc(C(=O)NC2CC2)s1 [Compound 43]	104	–	–	20300	–	–	–	36	39
Cc1nc2cc(OC(F)(F)F)ccc2n1-c1ccc(C(=O)NC2CC2)s1 [Compound 57]	64	60	33	> 30000	–	–	–	–	–
O=C(NC1CC1)c1ccc(-n2cnc3ccccc32)s1 [Compound 23]	56	88	79	> 30000	–	–	–	–	–
CCNC(=O)c1ccc(-n2c(C)nc3ccccc32)s1 [Compound 33]	191	–	–	> 30000	–	–	–	223	113
Cc1nc2ccccc2n1-c1ccc(C(=O)NC2CC2)s1 [Compound 32]	74	–	–	> 30000	–	–	–	114	105

SMILES	IC50 (pfDHODH; [1]) [nM]	EC50 (P. falciparum Dd2; [2]) [nM]	EC50 (P. falciparum 3D7; [3]) [nM]	IC50 (hsDHODH) [nM]	IC50 (pfDHODH; pfDHODH IC50, Table 2b) [nM]	EC50 (P. falciparum Dd2; Plasmodium falciparum, DD2, read-out: Dd2 EC50, Table 2b) [nM]	EC50 (P. falciparum 3D7; Plasmodium falciparum, 3D7, read-out: 3D7 EC50, Table 2b) [nM]	EC50 (P. falciparum Dd2; Table 2b, read-out: Dd2 EC50) [nM]	EC50 (P. falciparum 3D7; Table 2b, read-out: 3D7 EC50) [nM]
COc1ccc2c(c1)nc(C)n2-c1ccc(C(=O)NC2CC2)s1 [Compound 39]	212	247	180	24600	–	–	–	–	–
CCNC(=O)c1ccc(-n2c(CC)nc3ccccc32)s1 [Compound 63]	137	146	141	> 30000	–	–	–	–	–
Cc1ccc2c(c1)nc(C)n2-c1ccc(C(=O)NC2CC2)s1 [Compound 44]	56	48	34	> 30000	–	–	–	–	–
Cc1nc2cc3c(cc2n1-c1ccc(C(=O)NC2CC2)s1)OCO3 [Compound 90]	116	174	220	> 30000	–	–	–	–	–
Cc1nc2ccccc2n1-c1ccc(C(=O)NC2CC2)s1 [Compound 31]	99	106	66	> 30000	–	–	–	–	–
CC[C@H](C)NC(=O)c1ccc(-n2cnc3ccccc32)s1 [Compound 37]	17900	> 20000	> 20000	–	–	–	–	–	–
CCCCC(O)c1ccc(-n2cnc3ccccc32)s1 (stereo not shown) [Compound 85, 1-[5-(1H-benzimidazol-1-yl)-2-thienyl]pentan-1-ol]	> 30000	5900	20000	–	–	–	–	–	–
CCCNC(=O)c1ccc(N2CCOCC2)s1 [Compound 13, 5-morpholino-N-propylthiophene-2-carboxamide]	> 250000	> 10000	> 10000	–	–	–	–	–	–
O=C(c1ccc(-n2cnc3ccccc32)s1)N1CCCCC1 [Compound 34]	> 30000	> 20000	> 20000	–	–	–	–	–	–
NC(=O)c1ccc(-n2cnc3ccccc32)s1 [Compound 28]	> 30000	20000	> 40000	–	–	–	–	–	–
CCCNC(=O)c1ccc(N2CCOc3ccc(Cl)cc32)s1 [Compound 19, 5-(6-chloro-2H-benzo[b][1,4]oxazin-4(3H)-yl)-N-propylthiophene-2-carboxamide]	7500	> 10000	> 10000	–	–	–	–	–	–
CCCNC(=O)c1ccc(N2CCSc3ncccc32)s1 [Compound 21, 5-(2,3-dihydro-1H-pyrido[2,3-b][1,4]thiazin-1-yl)-N-propylthiophene-2-carboxamide]	13800	> 10000	> 10000	–	–	–	–	–	–
Cc1nc2ccccc2n1-c1cscc1C(=O)NC1CC1 [Compound 77, N-cyclopropyl-4-(2-methyl-1H-benzo[d]imidazol-1-yl)thiophene-3-carboxamide]	> 30000	> 5000	> 5000	–	–	–	–	–	–
CCCNC(=O)c1ccc(N2CC(C)Sc3ccccc32)s1 (stereo not shown) [Compound 17, 5-(2-methyl-2H-benzo[b][1,4]thiazin-4(3H)-yl)-N-propylthiophene-2-carboxamide]	19100	> 10000	> 10000	–	–	–	–	–	–
O=C(NC1CC1)c1ccc(-c2nc3ccccc3o2)s1 [Compound 80]	> 30000	1710	2580	–	–	–	–	–	–
CCCC/C(=N/OC)c1ccc(-n2cnc3ccccc32)s1 [Compound 88, 1-[5-(1H-benzimidazol-1-yl)-2-thienyl]pentan-1-one O-methyloxime]	> 30000	2600	5400	–	–	–	–	–	–
CCCNC(=O)c1ccc(-n2cnc3cc(Cl)ccc32)s1 [Compound 56]	324	–	203	> 30000	–	–	–	–	–

— patent US8703811B2, “Small molecule inhibitors of Plasmodium falciparum dihydroorotate dehydrogenase” (Genzyme Corporation, priority 2008, dated 2014)
